# Reference: ChEMBL document CHEMBL5634181, “Genome Mining Leads to Diverse Sesquiterpenes with Anti-inflammatory Activity from an Arctic-Derived Fungus” (J Nat Prod, 2024)
# Active and inactive are the calls of the source. The rule behind the calls is not given here.
# Columns and labels:
# RAW264.7 [1] = test: Antiproliferative activity against LPS-induced mouse RAW264.7 cells assessed as reduction in cell viability > 40 uM incubated for 24 hrs by CCK-8 assay; format: functional, cell-based
# RAW264.7 [2] = test: Anti-inflammatory activity against LPS-Induced mouse RAW264.7 cells assessed as reduction in NO release at 10 uM incubated for 24 hrs; format: functional, cell-based
# RAW264.7 [3] = test: Anti-inflammatory activity against LPS-Induced mouse RAW264.7 cells assessed as suppression of caspase-1 expression at 20 to 40 uM by Western blot analysis; format: functional, cell-based; conditions: dose 20-40 µM
# Danio rerio [4] = species on record: Danio rerio; test: (§1) Anti-inflammatory activity against CuSO4-induced transgenic Zebrafish acute inflammation model assessed as zebrafish movement by measuring decrease in total distance at 20 to 40 uM preincubated with CuSO4 for 24 hrs followed by compound addition and measured after 2 hrs by fluorescence microscopic analysis; format: functional, organism-based; conditions: dose 20-40 µM
# RAW264.7 [5] = test: Anti-inflammatory activity against LPS-induced mouse RAW264.7 cells reduction in IL-6 mRNA level by RT-qPCR analysis; format: functional, cell-based; conditions: dose 20-40 µM
# RAW264.7 [6] = test: Anti-inflammatory activity against LPS-Induced mouse RAW264.7 cells assessed as suppression of p-p38 expression by Western blot analysis; format: functional, cell-based; conditions: dose 20-40 µM
# Danio rerio [7] = species on record: Danio rerio; test: Anti-inflammatory activity against CuSO4-induced transgenic Zebrafish acute inflammation model assessed as zebrafish movement by measuring average velocity at 20 to 40 uM preincubated with CuSO4 for 24 hrs followed by compound addition and measured after 2 hrs by fluorescence microscopic analysis; format: functional, organism-based; conditions: dose 20-40 µM
# Danio rerio [8] = species on record: Danio rerio; test: Anti-inflammatory activity against CuSO4-induced transgenic Zebrafish acute inflammation model assessed as decrease in TNF-alpha expression at 20 to 40 uM preincubated with CuSO4 for 24 hrs followed by compound addition and measured after 2 hrs by RT-qPCR analysis; format: functional, organism-based; conditions: dose 20-40 µM
# Danio rerio [9] = species on record: Danio rerio; test: Anti-inflammatory activity against CuSO4-induced transgenic Zebrafish acute inflammation model assessed as decrease in IL-6 expression at 20 to 40 uM preincubated with CuSO4 for 24 hrs followed by compound addition and measured after 2 hrs by RT-qPCR analysis; format: functional, organism-based; conditions: dose 20-40 µM
# RAW264.7 [10] = test: Cytotoxicity against LPS-induced mouse RAW264.7 cells assessed as effect on cell viability upto to 160 uM incubated for 24 hrs by CCK-8 assay; format: toxicity, cell-based; conditions: raw264.7, 24 h
# Danio rerio [11] = species on record: Danio rerio; test: Anti-inflammatory activity against CuSO4-induced transgenic Zebrafish acute inflammation model assessed as decrease in NLRP3 expression at 20 to 40 uM preincubated with CuSO4 for 24 hrs followed by compound addition and measured after 2 hrs by RT-qPCR analysis; format: functional, organism-based; conditions: dose 20-40 µM
# RAW264.7 [12] = test: Anti-inflammatory activity against LPS-induced mouse RAW264.7 cells reduction in IL-1beta mRNA level by RT-qPCR analysis; format: functional, cell-based; conditions: dose 20-40 µM
# RAW264.7 [13] = test: Anti-inflammatory activity against LPS-Induced mouse RAW264.7 cells assessed as suppression of p-JNK expression by Western blot analysis; format: functional, cell-based; conditions: dose 20-40 µM
# RAW264.7 [14] = test: Anti-inflammatory activity against LPS-Induced mouse RAW264.7 cells assessed as inhibition rate of NO release at 10 uM incubated for 24 hrs relative to control; format: functional
# RAW264.7 [15] = test: Anti-inflammatory activity against LPS-induced mouse RAW264.7 cells reduction in TNF-alpha mRNA level by RT-qPCR analysis; format: functional, cell-based; conditions: dose 20-40 µM
# RAW264.7 [16] = test: Anti-inflammatory activity against LPS-Induced mouse RAW264.7 cells assessed as suppression of p-ERK expression by Western blot analysis; format: functional, cell-based; conditions: dose 20-40 µM
# Danio rerio [17] = species on record: Danio rerio; test: as §1, with “as” for “as zebrafish movement by measuring”, “migration of inflammatory cells to lateral line” for “total distance”; format: functional, organism-based; conditions: dose 20-40 µM
# Danio rerio [18] = species on record: Danio rerio; test: Anti-inflammatory activity against CuSO4-induced transgenic Zebrafish acute inflammation model assessed as decrease in caspase-1 expression at 20 to 40 uM preincubated with CuSO4 for 24 hrs followed by compound addition and measured after 2 hrs by RT-qPCR analysis; format: functional, organism-based; conditions: dose 20-40 µM
# Danio rerio [19] = species on record: Danio rerio; test: Anti-inflammatory activity against CuSO4-induced transgenic Zebrafish acute inflammation model assessed as decrease in IL-1beta expression at 20 to 40 uM preincubated with CuSO4 for 24 hrs followed by compound addition and measured after 2 hrs by RT-qPCR analysis; format: functional, organism-based; conditions: dose 20-40 µM
# RAW264.7 [20] = test: Anti-inflammatory activity against LPS-induced mouse RAW264.7 cells reduction in IL-18 mRNA level by RT-qPCR analysis; format: functional, cell-based; conditions: dose 20-40 µM
# RAW264.7 [21] = test: Anti-inflammatory activity against LPS-Induced mouse RAW264.7 cells assessed as suppression of NLRP3 expression at 20 to 40 uM by Western blot analysis; format: functional, cell-based; conditions: dose 20-40 µM
Structure (SMILES),Activity (RAW264.7 [1]),Activity (RAW264.7 [2]),further results
CC(C)=C[C@H](O)C[C@]1(C)[C@@H]2C[C@H]1C(C)=CC2=O,inactive,–,–
CC1=CC[C@@H]([C@@](C)(O)C/C(C)=C/[C@H](C)O)[C@@H](O)[C@H]1O,inactive,–,–
C=C1C[C@H](O)C[C@]2(C)CC[C@@H](C(C)(C)O)C[C@@H]12,inactive,–,–
Cc1ccc([C@@](C)(O)C/C=C/C(C)(C)O)cc1,inactive,Active,–
CC(C)=CCC[C@](C)(O)[C@@H]1CC=C(C)[C@@H](O)[C@H]1O,inactive,–,–
CC1=CC[C@@]2(C[C@H]1O)[C@H](C)CC[C@@H]2C(C)CO (stereo partly specified),inactive,Active,Activity (RAW264.7 [3]): Active; Activity (Danio rerio [4]): Active; Activity (RAW264.7 [5]): Dose-Dependent Effect; Activity (RAW264.7 [6]): Dose-Dependent Effect; Activity (Danio rerio [7]): Active; Activity (Danio rerio [8]): Active; Activity (Danio rerio [9]): Active; Activity (RAW264.7 [10]): Non-Toxic; Activity (Danio rerio [11]): Active; Activity (RAW264.7 [12]): Dose-Dependent Effect; Activity (RAW264.7 [13]): Dose-Dependent Effect; inhibition at 10 µM (RAW264.7 [14]): 65%; Activity (RAW264.7 [15]): Dose-Dependent Effect; Activity (RAW264.7 [16]): Dose-Dependent Effect; Activity (Danio rerio [17]): Active; Activity (Danio rerio [18]): Active; Activity (Danio rerio [19]): Active; Activity (RAW264.7 [20]): Dose-Dependent Effect; Activity (RAW264.7 [21]): Active
CC(C)=CCC[C@](C)(O)[C@@H]1CC=C(C)[C@@H](O)C1,inactive,Active,–
C[C@@H]1C[C@H]2[C@@H]3CCC4=CC(=O)C=C[C@]4(C)[C@@]3(F)[C@@H](O)C[C@]2(C)[C@@]1(O)C(=O)CO [DEXAMETHASONE],inactive,–,inhibition at 10 µM (RAW264.7 [14]): 72%
CC1=C2C[C@H](C(C)(C)O)CC[C@@]2(C)CCC1=O,Active,–,–
CC(C)=C[C@H]1C[C@@](C)(O)[C@@H]2[C@@H](CC=C(C)[C@@H]2O)O1,inactive,–,–
CO[C@]1([C@H](O)[C@@H](O)CC=C(C)C)C=CCC(C)=C1C,inactive,–,–
CC(C)=C[C@H]1C[C@@](C)(O)[C@H]2CC=C(C)[C@@H](O)[C@H]2O1,inactive,Active,–
CC1=CC[C@@H]2[C@H](O)COC/C(C)=C\[C@@H](O)C[C@]12C,inactive,–,–
CC1=CC(=O)C[C@@]2(C)CC[C@H](C(C)(C)O)C[C@H]12,inactive,Active,–
CC1=CC(=O)[C@H]2C[C@@H]1[C@]2(C)C/C=C/C(C)(C)O,Active,–,–
C=C1[C@H](O)CC[C@]2(C)CC[C@@H](C(C)(C)O)C[C@@H]12,inactive,–,–
